Values after ≈ are worked out from the molar mass of the structure shown.
Key:
Plasmodium falciparum [1] = assay: Antiplasmodial activity chloroquine-resistant Plasmodium falciparum W2 using YOYO-1 staining after 48 hrs by FACS analysis; format: functional, organism-based; conditions: W2, 48 h
Plasmodium falciparum [2] = assay: Antiplasmodial activity chloroquine-sensitive Plasmodium falciparum 3D7 infected in human A+ erythrocytes assessed as reduction of [3H]hypoxanthine incorporation after 24 hrs by scintillation counting; format: functional, organism-based
Plasmodium falciparum [3] = assay: Antiplasmodial activity chloroquine-resistant Plasmodium falciparum K1 infected in human A+ erythrocytes assessed as reduction of [3H]hypoxanthine incorporation after 24 hrs by scintillation counting; format: functional, organism-based
physchem [4] = conditions: phosphate buffered saline, pH 7.4
physchem [5] = conditions: 0.01 M HCl, pH 2
Hepatocyte [6] = assay: Drug metabolism in human hepatocytes assessed as formation of N-dealkylation product at 5 uM after 1 hr; format: ADME, cell-based
Cytochrome P450 2B6 = target: T1, Cytochrome P450 2B6 (Homo sapiens, UniProt P20813); assay: Inhibition of CYP2B6 in human liver microsomes assessed as bupropion hydroxylation after 20 mins by LC-MS analysis; format: ADME, Microsome
T1 sequence (P20813 whole entry): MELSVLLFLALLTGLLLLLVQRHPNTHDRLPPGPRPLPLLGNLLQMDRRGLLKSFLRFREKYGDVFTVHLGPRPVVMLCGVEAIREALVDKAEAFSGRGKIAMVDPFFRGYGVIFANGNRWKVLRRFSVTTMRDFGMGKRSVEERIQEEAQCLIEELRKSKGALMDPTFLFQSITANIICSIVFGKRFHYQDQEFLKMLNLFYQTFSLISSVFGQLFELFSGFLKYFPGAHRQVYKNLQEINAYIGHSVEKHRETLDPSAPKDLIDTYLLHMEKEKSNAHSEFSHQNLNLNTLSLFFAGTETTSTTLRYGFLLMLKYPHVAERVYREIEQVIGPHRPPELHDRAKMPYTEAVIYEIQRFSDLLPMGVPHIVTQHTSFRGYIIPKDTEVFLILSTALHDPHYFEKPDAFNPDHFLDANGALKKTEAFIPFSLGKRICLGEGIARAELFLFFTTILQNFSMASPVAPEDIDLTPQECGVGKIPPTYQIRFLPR

Cytochrome P450 2E1 = Cytochrome P450 2E1 (Homo sapiens, UniProt P05181); assay: Inhibition of CYP2E1 in human liver microsomes assessed as chlorzoxazone 6-hydroxylation after 20 mins by LC-MS analysis; format: ADME, Microsome
Chain of Cytochrome P450 2E1 (P05181 whole entry): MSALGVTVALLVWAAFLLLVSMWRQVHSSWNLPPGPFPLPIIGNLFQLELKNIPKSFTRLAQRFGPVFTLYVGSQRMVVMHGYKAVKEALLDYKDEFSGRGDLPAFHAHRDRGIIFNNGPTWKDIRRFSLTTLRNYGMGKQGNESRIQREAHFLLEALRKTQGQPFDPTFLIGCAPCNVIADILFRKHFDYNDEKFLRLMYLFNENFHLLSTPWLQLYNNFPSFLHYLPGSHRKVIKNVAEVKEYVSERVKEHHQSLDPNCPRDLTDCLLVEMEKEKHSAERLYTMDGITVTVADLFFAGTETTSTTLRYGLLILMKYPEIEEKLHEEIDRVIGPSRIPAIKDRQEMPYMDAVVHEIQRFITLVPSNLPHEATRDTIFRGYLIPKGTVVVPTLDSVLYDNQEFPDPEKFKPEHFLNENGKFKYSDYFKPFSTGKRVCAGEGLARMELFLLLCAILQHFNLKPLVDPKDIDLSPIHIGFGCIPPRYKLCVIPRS

Liver microsomes [7] = assay: Drug metabolism in human liver microsomes assessed as formation of N-dealkylation product at 5 uM after 1 hr; format: ADME, Microsome
Cytochrome P450 2C9 = Cytochrome P450 2C9 (Homo sapiens, UniProt P11712); assay: Inhibition of CYP2C9 in human liver microsomes assessed as diclofenac 4'-hydroxylation after 20 mins by LCMS analysis; format: ADME, Microsome
Chain of Cytochrome P450 2C9 (P11712 whole entry): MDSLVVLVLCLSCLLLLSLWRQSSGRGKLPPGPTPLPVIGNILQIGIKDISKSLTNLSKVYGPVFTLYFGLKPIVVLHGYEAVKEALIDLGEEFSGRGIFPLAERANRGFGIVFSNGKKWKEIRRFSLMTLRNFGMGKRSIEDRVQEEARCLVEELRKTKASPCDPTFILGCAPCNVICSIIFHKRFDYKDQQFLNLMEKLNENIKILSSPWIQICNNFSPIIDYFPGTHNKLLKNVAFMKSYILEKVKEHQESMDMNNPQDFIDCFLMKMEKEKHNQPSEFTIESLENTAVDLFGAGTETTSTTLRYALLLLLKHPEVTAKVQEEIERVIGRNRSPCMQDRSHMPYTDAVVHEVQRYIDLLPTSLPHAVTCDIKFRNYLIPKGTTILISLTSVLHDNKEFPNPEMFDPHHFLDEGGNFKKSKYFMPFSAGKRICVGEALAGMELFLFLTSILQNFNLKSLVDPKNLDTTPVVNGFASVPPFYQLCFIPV

Liver microsomes [8] = assay: Metabolic stability of the compound in human liver microsomes at 1 uM after 40 mins; format: ADME, Microsome
Liver microsomes [9] = assay: Metabolic stability of the compound in rat liver microsomes at 1 uM after 40 mins; format: ADME, Microsome
Cytochrome P450 1A2 = target: T2, Cytochrome P450 1A2 (Homo sapiens, UniProt P05177); assay: Inhibition of CYP1A2 in human liver microsomes assessed as phenacetin O-deethylation after 20 mins by LC-MS analysis; format: ADME, Microsome
T2 sequence (P05177 whole entry): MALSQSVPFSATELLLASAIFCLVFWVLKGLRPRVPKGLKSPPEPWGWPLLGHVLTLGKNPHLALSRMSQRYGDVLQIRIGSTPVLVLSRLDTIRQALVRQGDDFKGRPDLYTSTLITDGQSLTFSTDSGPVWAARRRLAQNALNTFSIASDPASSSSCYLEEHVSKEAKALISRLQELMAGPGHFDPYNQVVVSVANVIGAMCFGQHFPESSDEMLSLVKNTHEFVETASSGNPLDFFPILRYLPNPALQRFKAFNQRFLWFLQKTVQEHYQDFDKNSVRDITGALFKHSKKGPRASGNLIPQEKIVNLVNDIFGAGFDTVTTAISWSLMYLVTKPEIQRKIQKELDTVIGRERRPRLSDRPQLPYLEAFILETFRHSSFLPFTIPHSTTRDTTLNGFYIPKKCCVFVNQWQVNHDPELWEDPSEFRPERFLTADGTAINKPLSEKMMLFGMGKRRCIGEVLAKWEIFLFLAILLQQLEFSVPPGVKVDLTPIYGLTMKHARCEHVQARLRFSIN

Cytochrome P450 2A6 = target: T3, Cytochrome P450 2A6 (Homo sapiens, UniProt P11509); assay: Inhibition of CYP2A6 in human liver microsomes assessed as coumarin 7-hydroxylation after 20 mins by LC-MS analysis; format: ADME, Microsome
T3 sequence (P11509 whole entry): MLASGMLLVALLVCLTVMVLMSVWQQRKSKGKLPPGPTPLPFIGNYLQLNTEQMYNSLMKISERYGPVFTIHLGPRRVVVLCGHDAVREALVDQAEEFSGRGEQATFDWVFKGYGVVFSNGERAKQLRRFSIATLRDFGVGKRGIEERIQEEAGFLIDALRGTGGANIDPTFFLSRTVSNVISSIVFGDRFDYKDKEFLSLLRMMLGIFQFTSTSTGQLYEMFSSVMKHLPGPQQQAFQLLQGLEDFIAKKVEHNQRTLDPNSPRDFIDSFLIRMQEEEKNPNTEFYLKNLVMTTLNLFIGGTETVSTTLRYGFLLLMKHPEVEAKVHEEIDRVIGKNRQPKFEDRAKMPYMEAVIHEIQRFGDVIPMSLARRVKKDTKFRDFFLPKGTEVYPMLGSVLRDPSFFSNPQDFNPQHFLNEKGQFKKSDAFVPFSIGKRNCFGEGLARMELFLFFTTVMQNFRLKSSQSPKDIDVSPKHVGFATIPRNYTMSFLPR

CHO = assay: Cytotoxicity against CHO cells by MTT assay; format: cell-based; conditions: Cricetulus griseus
Cytochrome P450 2C8 = target: T4, Cytochrome P450 2C8 (Homo sapiens, UniProt P10632); assay: Inhibition of CYP2C8 in human liver microsomes assessed as paclitaxel 6alpha-hydroxylation after 20 mins by LC-MS analysis; format: ADME, Microsome
T4 sequence (P10632 whole entry): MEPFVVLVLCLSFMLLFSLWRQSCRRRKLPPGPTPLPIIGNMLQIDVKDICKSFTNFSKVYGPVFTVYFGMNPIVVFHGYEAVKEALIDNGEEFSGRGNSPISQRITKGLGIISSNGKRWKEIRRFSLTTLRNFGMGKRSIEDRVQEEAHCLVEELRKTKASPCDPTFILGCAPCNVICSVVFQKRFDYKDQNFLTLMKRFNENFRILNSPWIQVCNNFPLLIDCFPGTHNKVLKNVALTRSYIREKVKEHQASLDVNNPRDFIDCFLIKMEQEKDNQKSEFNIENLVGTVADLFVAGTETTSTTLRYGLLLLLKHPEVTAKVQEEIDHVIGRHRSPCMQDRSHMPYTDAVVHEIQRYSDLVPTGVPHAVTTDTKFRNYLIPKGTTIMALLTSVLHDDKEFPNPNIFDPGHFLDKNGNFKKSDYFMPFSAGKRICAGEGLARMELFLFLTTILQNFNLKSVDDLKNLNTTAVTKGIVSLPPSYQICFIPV

Cytochrome P450 2D6 = Cytochrome P450 2D6 (Homo sapiens, UniProt P10635); assay: Inhibition of CYP2D6 in human liver microsomes assessed as bufuralol 1'-hydroxylation after 20 mins by LCMS analysis; format: ADME, Microsome
Chain of Cytochrome P450 2D6 (P10635 whole entry): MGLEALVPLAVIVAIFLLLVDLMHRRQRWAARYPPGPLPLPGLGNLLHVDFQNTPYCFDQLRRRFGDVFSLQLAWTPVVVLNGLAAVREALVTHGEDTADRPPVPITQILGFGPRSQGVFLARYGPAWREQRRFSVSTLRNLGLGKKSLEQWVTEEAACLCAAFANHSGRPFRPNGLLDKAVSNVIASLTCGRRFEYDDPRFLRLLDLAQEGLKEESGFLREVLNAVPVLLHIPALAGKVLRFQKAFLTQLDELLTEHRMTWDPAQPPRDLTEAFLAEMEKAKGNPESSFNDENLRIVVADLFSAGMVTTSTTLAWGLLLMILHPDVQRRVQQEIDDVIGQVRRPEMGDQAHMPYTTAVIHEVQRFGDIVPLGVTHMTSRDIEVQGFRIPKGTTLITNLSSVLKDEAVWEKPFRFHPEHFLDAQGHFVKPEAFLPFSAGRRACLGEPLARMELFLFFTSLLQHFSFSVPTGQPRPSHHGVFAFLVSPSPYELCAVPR

Hepatocyte [10] = assay: Drug metabolism in rat hepatocytes assessed as formation of oxidation product at 5 uM after 1 hr; format: ADME, cell-based
[11] = Clearance in albino Wistar rat at 1 mg/kg, iv; format: ADME, organism-based; set-up: dose 1 mg/kg, route intravenous; conditions: in vivo
Hepatocyte [12] = assay: Metabolic stability in rat hepatocytes assessed as level of GSH adduct at 5 uM after 1 hr; format: ADME, cell-based
Liver microsomes [13] = assay: Drug metabolism in rat liver microsomes assessed as formation of N-dealkylation product at 5 uM after 1 hr; format: ADME, Microsome
[14] = AUC (infinity) in albino Wistar rat at 10 mg/kg, po; format: ADME, organism-based; set-up: time infinity, dose 10 mg/kg, route oral; conditions: plasma
[15] = Oral bioavailability in albino Wistar rat at 10 mg/kg; format: ADME, organism-based; conditions: in vivo
[16] = Volume of distribution at steady state in albino Wistar rat at 1 mg/kg, iv; format: ADME, organism-based; set-up: dose 1 mg/kg, route intravenous; conditions: in vivo, read-out: Vdss
Liver microsomes [17] = assay: Metabolic stability in rat liver microsomes assessed as level of GSH adduct at 5 uM after 1 hr; format: ADME, Microsome
[18] = Tmax in albino Wistar rat at 10 mg/kg, po; format: ADME, organism-based; set-up: dose 10 mg/kg, route oral; conditions: in vivo
Liver microsomes [19] = assay: Metabolic stability in human liver microsomes assessed as level of GSH adduct at 5 uM after 1 hr; format: ADME, Microsome
Cytochrome P450 3A4 = Cytochrome P450 3A4 (Homo sapiens, UniProt P08684); assay: Inhibition of CYP3A4 in human liver microsomes assessed as midazolam 1'-hydroxylation after 20 mins by LCMS analysis; format: ADME, Microsome
Chain of Cytochrome P450 3A4 (P08684 whole entry): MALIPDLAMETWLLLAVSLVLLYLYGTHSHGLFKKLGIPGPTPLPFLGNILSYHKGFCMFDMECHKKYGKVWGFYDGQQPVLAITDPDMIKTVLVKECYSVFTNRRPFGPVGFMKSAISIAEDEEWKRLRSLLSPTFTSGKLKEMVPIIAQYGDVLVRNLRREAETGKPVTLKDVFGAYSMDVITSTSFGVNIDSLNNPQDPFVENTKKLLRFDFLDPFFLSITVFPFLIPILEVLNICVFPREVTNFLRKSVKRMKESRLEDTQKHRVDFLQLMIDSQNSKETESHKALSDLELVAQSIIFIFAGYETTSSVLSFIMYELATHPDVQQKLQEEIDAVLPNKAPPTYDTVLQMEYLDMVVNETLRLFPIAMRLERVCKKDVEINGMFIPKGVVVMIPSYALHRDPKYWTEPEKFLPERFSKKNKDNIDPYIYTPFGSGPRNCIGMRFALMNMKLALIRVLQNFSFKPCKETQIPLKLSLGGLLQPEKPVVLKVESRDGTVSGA

Cytochrome P450 2C19 = Cytochrome P450 2C19 (Homo sapiens, UniProt P33261); assay: Inhibition of CYP2C19 in human liver microsomes assessed as S-mephenytoin 4'-hydroxylation after 20 mins by LCMS analysis; format: ADME, Microsome
Chain of Cytochrome P450 2C19 (P33261 whole entry): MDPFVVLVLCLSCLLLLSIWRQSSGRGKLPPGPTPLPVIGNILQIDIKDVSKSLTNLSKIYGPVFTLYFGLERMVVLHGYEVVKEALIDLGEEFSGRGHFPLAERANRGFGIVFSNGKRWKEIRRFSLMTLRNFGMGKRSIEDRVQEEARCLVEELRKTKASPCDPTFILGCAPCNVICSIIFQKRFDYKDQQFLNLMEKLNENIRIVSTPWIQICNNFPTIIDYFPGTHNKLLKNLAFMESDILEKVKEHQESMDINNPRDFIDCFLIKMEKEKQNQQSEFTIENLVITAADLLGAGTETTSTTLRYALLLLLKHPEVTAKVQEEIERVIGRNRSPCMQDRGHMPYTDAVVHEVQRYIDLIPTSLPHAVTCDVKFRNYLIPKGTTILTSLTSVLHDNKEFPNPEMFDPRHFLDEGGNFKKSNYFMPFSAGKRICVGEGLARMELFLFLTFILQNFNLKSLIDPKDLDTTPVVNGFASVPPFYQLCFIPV

[20] = Cmax in albino Wistar rat at 10 mg/kg, po; format: ADME, organism-based; set-up: dose 10 mg/kg, route oral; conditions: in vivo
[21] = AUC (infinity) in albino Wistar rat at 1 mg/kg, iv; format: ADME, organism-based; set-up: time infinity, dose 1 mg/kg, route intravenous; conditions: plasma
[22] = Half life in albino Wistar rat at 1 mg/kg, iv; format: ADME, organism-based; set-up: dose 1 mg/kg, route intravenous; conditions: in vivo
Hepatocyte [23] = assay: Metabolic stability in human hepatocytes assessed as level of GSH adduct at 5 uM after 1 hr; format: ADME, cell-based

Compound | IC50 (Plasmodium falciparum [1]) [nM] | IC50 (Plasmodium falciparum [2]) [nM] | IC50 (Plasmodium falciparum [3]) [nM] | solubility kinetic at 2 h (physchem [4]) [µM] | solubility kinetic at 2 h (physchem [5]) [µM] | IC50 (Cytochrome P450 2B6) [nM] | IC50 (Cytochrome P450 2E1) [nM] | IC50 (Cytochrome P450 2C9) [nM] | Stability (Liver microsomes [8]) | Stability (Liver microsomes [9]) | IC50 (Cytochrome P450 1A2) [nM] | IC50 (Cytochrome P450 2A6) [nM] | IC50 (CHO) [nM] | IC50 (Cytochrome P450 2C8) [nM] | IC50 (Cytochrome P450 2D6) [nM] | further results
CCN(CC)Cc1cc(Nc2ccnc3cc(Cl)ccc23)ccc1O | 401 | 1 | 27 | – | – | – | – | – | – | – | – | – | – | – | – | –
CN(C)C(c1cccc(Nc2ccnc3cc(Cl)ccc23)c1)c1nnnn1C(C)(C)C (stereo unspecified) | 227 | 52 | 150 | 7.3 (≈ 3.18 µg/mL) | > 200 | – | – | – | – | – | – | – | – | – | – | –
CCN(CC)C(c1cccc(Nc2ccnc3cc(Cl)ccc23)c1)c1nnnn1C(C)(C)C (stereo unspecified) | 66 | 100 | 6 | < 5 | > 200 | > 20000 | > 20000 | 2430 | Unstable | Unstable | 4330 | > 20000 | 111000 | 220 | 2310 | Drug metabolism (Hepatocyte [6]): Active; Drug metabolism (Liver microsomes [7]): Active
CC(C)(C)n1nnnc1C(c1cccc(Nc2ccnc3cc(Cl)ccc23)c1)N1CCCC1 (stereo unspecified) | 77 | 10 | 9.6 | < 5 | > 200 | > 20000 | > 20000 | 3140 | Unstable | Unstable | 2540 | > 20000 | 117000 | 120 | 3460 | Drug metabolism (Hepatocyte [10]): Active; clearance [11]: 278 mL/min/kg; Stability (Hepatocyte [12]): Stable; Drug metabolism (Liver microsomes [13]): Active; AUC(0-inf) [14]: 21 ng·h/mL; bioavailability [15]: 3.3%; Vd [16]: 12.2 L/kg; Stability (Liver microsomes [17]): Stable; Tmax [18]: 15 min; Stability (Liver microsomes [19]): Stable; IC50 (Cytochrome P450 3A4): 1450 nM; IC50 (Cytochrome P450 2C19): 13800 nM; Cmax [20]: 13.3 ng/mL; AUC(0-inf) [21]: 63.5 ng·h/mL; half-life [22]: 51 min; Stability (Hepatocyte [23]): Stable

— ChEMBL document CHEMBL2412968, “Tetrazole-based deoxyamodiaquines: synthesis, ADME/PK profiling and pharmacological evaluation as potential antimalarial agents” (Bioorg Med Chem, 2013)
